Measurements published in patent US20040157744A1, “Substituted fluoroalkoxyphenylsulfonyl-amino(thio)carbonyltriazolino(thi)ones” (priority 2001, published 2004).

Legend:
Wheat = assay: Pre-emergence test, Wheat; assay type: in vivo; details: after three weeks
Method: (§1) Solvent: 5 parts by weight of acetone
(§2) Emulsifier: 1 part by weight of alkylaryl polyglycol ether
(§3) To produce a suitable preparation of active compound, 1 part by weight of active compound is mixed with the stated amount of solvent, the stated amount of emulsifier is added and the concentrate is diluted with water to the desired concentration.
(§4) Seeds of the test plants are sown in normal soil. After 24 hours, the soil is sprayed with the preparation of active compounds such that the particular amount of active compound desired is applied per unit area. The concentration of active compound in the spray liquor is chosen such that the particular amount of active compound desired is applied in 1000 litres of water per hectare.
(§5) After three weeks, the degree of damage to the plants is rated in % damaged in comparison to the development of the untreated control. The figures denote:
(§6) 0%=no effect (like untreated control)

Solanum = assay: Pre-emergence test, Solanum; assay type: in vivo; details: after three weeks
Method: as §1, §2, §3, §4, §5, §6

Barley = assay: Pre-emergence test, Barley; assay type: in vivo; details: 4 g ai/ha, after three weeks, vs untreated control (Table A-2)
Method: as §1, §2, §3, §4, §5, §6

weeds [1] = assay: Pre-emergence test, action against weeds; assay type: in vivo
Method: as §1, §2, §3, §4, §5, §6

Alopecurus [2] = assay: Pre-emergence test, Alopecurus; assay type: in vivo; details: after three weeks
Method: as §1, §2, §3, §4, §5, §6

Amaranthus [3] = assay: Pre-emergence test, Amaranthus; assay type: in vivo; details: after three weeks
Method: as §1, §2, §3, §4, §5, §6

Viola = assay: Pre-emergence test, Viola; assay type: in vivo; details: after three weeks
Method: as §1, §2, §3, §4, §5, §6

Matricaria [4] = assay: Pre-emergence test, Matricaria; assay type: in vivo; details: after three weeks
Method: as §1, §2, §3, §4, §5, §6

Galium = assay: Pre-emergence test, Galium; assay type: in vivo; details: 30 g ai/ha, after three weeks
Method: as §1, §2, §3, §4, §5, §6

Stellaria [5] = assay: Pre-emergence test, Stellaria; assay type: in vivo; details: 30 g ai/ha, after three weeks
Method: as §1, §2, §3, §4, §5, §6

Lolium [6] = assay: Pre-emergence test, Lolium; assay type: in vivo; details: 30 g ai/ha, after three weeks
Method: as §1, §2, §3, §4, §5, §6

Echinochloa [7] = assay: Pre-emergence test, Echinochloa; assay type: in vivo; details: 30 g ai/ha, after three weeks
Method: as §1, §2, §3, §4, §5, §6

Setaria = assay: Post-emergence test, Setaria; assay type: in vivo; details: 15 g ai/ha, after three weeks, vs untreated control (Table B-1)
Method: as §1, §2, §3
(§7) Test plants of a height of 5-15 cm are sprayed with the preparation of active compound such that the particular amounts of active compound desired are applied per unit area. The concentration of the spray liquor is chosen such that the particular amounts of active compound desired are applied in 10001 of water/ha.
(§8) After three weeks, the degree of damage to the plants is rated in % damage in comparison to the development of the untreated control.
as §6

Xanthium = assay: Post-emergence test, Xanthium; assay type: in vivo; details: 15 g ai/ha, after three weeks, vs untreated control (Table B-1)
Method: as §1, §2, §3, §7, §8, §6

Stellaria [8] = assay: Post-emergence test, Stellaria; assay type: in vivo; details: 15 g ai/ha, after three weeks
Method: as §1, §2, §3, §7, §8, §6

Matricaria [9] = assay: Post-emergence test, Matricaria; assay type: in vivo; details: 15 g ai/ha, after three weeks
Method: as §1, §2, §3, §7, §8, §6

weeds [10] = assay: Post-emergence test, action against weeds; assay type: in vivo
Method: as §1, §2, §3, §7, §8, §6

Amaranthus [11] = assay: Post-emergence test, Amaranthus; assay type: in vivo; details: 15 g ai/ha, after three weeks
Method: as §1, §2, §3, §7, §8, §6

Abutilon = assay: Post-emergence test, Abutilon; assay type: in vivo; details: 15 g ai/ha, after three weeks
Method: as §1, §2, §3, §7, §8, §6

Alopecurus [12] = assay: Post-emergence test, Alopecurus; assay type: in vivo; details: 15 g ai/ha, after three weeks, vs untreated control (Table B-2)
Method: as §1, §2, §3, §7, §8, §6

Echinochloa [13] = assay: Post-emergence test, Echinochloa; assay type: in vivo; details: 15 g ai/ha, after three weeks, vs untreated control (Table B-2)
Method: as §1, §2, §3, §7, §8, §6

Lolium [14] = assay: Post-emergence test, Lolium; assay type: in vivo; details: 15 g ai/ha, after three weeks, vs untreated control (Table B-2)
Method: as §1, §2, §3, §7, §8, §6

Sugar beet = assay: Pre-emergence test, Sugar beet; assay type: in vivo; details: 30 g ai/ha, after three weeks, vs untreated control (Table A-5)
Method: as §1, §2, §3, §4, §5, §6

[15] = 4 g ai/ha, vs untreated control (Table A-2)
[16] = vs untreated control (Table A-4)
[17] = 30 g ai/ha, vs untreated control (Table A-4)
[18] = vs untreated control (Table B-1)
[19] = 8 g ai/ha, vs untreated control (Table A-1)
[20] = vs untreated control (Table B-2)
[21] = vs untreated control (Table A-3)
[22] = 30 g ai/ha, vs untreated control (Table A-3)
[23] = vs untreated control (Table A-5)
[24] = 30 g ai/ha, vs untreated control (Table A-5)

## CCCOc1nn(C(=O)NS(=O)(=O)c2c(OCC)cccc2OCCF)c(=O)n1C [Ex. 34]
Wheat; [15]
  degree of damage, Wheat: 0%
Solanum; [15]
  degree of damage, Solanum: 95%
Barley
  degree of damage, Barley: 10%
Weeds [1]
  action against weeds: very strong action
other
  melting point: 123 °C
Alopecurus [2]; [15]
  degree of damage, Alopecurus: 100%
Amaranthus [3]; [15]
  degree of damage, Amaranthus: 95%
Viola; [15]
  degree of damage, Viola: 95%
Matricaria [4]; [15]
  degree of damage, Matricaria: 100%

## CCc1cccc(OCCCF)c1S(=O)(=O)NC(=O)n1nc(CC)n(C2CC2)c1=O [Ex. 93]
Galium; [16]
  degree of damage, Galium: 95%
Stellaria [5]; [16]
  degree of damage, Stellaria: 100%
Lolium [6]; [16]
  degree of damage, Lolium: 95%
Weeds [1]
  action against weeds: very strong action
Echinochloa [7]; [16]
  degree of damage, Echinochloa: 100%
other
  melting point: 140 °C
Alopecurus [2]; [17]
  degree of damage, Alopecurus: 95%
Amaranthus [3]; [17]
  degree of damage, Amaranthus: 100%
Viola; [17]
  degree of damage, Viola: 100%

## CCCOc1cccc(OCCF)c1S(=O)(=O)NC(=O)n1nc(OCC)n(C)c1=O [Ex. 32]
Setaria
  degree of damage, Setaria: 95%
Xanthium
  degree of damage, Xanthium: 100%
Stellaria [8]; [18]
  degree of damage, Stellaria: 100%
Solanum; [19]
  degree of damage, Solanum: 100%
Matricaria [9]; [18]
  degree of damage, Matricaria: 100%
Weeds [1]
  action against weeds: very strong action
other
  melting point: 132 °C
Weeds [10]
  action against weeds: very strong action
Alopecurus [2]; [19]
  degree of damage, Alopecurus: 100%
Amaranthus [11]; [18]
  degree of damage, Amaranthus: 100%
Amaranthus [3]; [19]
  degree of damage, Amaranthus: 100%
Viola; [19]
  degree of damage, Viola: 100%
Abutilon; [18]
  degree of damage, Abutilon: 100%
Matricaria [4]; [19]
  degree of damage, Matricaria: 100%

## CCOc1cccc(OCCF)c1S(=O)(=O)NC(=O)n1nc(OCC)n(C)c1=O [Ex. 33]
Stellaria [8]; [20]
  degree of damage, Stellaria: 100%
Matricaria [9]; [20]
  degree of damage, Matricaria: 100%
Alopecurus [12]
  degree of damage, Alopecurus: 95%
Echinochloa [13]
  degree of damage, Echinochloa: 100%
other
  melting point: 157 °C
Lolium [14]
  degree of damage, Lolium: 95%
Weeds [10]
  action against weeds: very strong action
Amaranthus [11]; [20]
  degree of damage, Amaranthus: 100%
Abutilon; [20]
  degree of damage, Abutilon: 100%

## CCc1ccccc1S(=O)(=O)N(OCCF)C(=O)n1nc(C)n(C2CC2)c1=O [Ex. 1, 4-cyclopropyl-5-methyl-2-[(2-fluoro-ethoxy)-6-ethyl-phenylsulphonylaminocarbonyl]-2,4-dihydro-3H-1,2,4-triazol-3-one]
other
  melting point: 147 °C

## COc1nn(C(=O)NS(=O)(=O)c2c(C)cccc2OCCCF)c(=O)n1C [Ex. 41]
Galium; [21]
  degree of damage, Galium: 100%
Stellaria [5]; [21]
  degree of damage, Stellaria: 100%
Wheat; [22]
  degree of damage, Wheat: 0%
Lolium [6]; [21]
  degree of damage, Lolium: 90%
Weeds [1]
  action against weeds: very strong action
Echinochloa [7]; [21]
  degree of damage, Echinochloa: 95%
other
  melting point: 120 °C
Amaranthus [3]; [22]
  degree of damage, Amaranthus: 95%
Matricaria [4]; [22]
  degree of damage, Matricaria: 100%

## CCCc1cccc(OCCCF)c1S(=O)(=O)NC(=O)n1nc(N(C)C)n(C2CC2)c1=O [Ex. 114]
Galium; [23]
  degree of damage, Galium: 80%
Stellaria [5]; [23]
  degree of damage, Stellaria: 95%
Lolium [6]; [23]
  degree of damage, Lolium: 95%
Weeds [1]
  action against weeds: very strong action
other
  melting point: 130 °C
Alopecurus [2]; [24]
  degree of damage, Alopecurus: 95%
Sugar beet
  degree of damage, Sugar beet: 0%
Amaranthus [3]; [24]
  degree of damage, Amaranthus: 95%
